According to ChEMBL document CHEMBL1149925, “Application of hygromycin a structure activity relationships to the antibiotic A201A” (1993):
≈ marks a conversion by molar mass, not a printed value.

What was measured:
[1] = system: Brachyspira hyodysenteriae; experiment: Tested for antibacterial activity expressed as minimum inhibitory concentration against Serpulina (Treponema) hyodysenteriae; format: functional
Pasteurella multocida = experiment: Tested for antibacterial activity expressed as minimum inhibitory concentration against Pasteurella multocida; format: functional

Row | Structure (SMILES) | MIC [1] [µg/mL] | MIC (Pasteurella multocida) [µg/mL]
1 | C/C(=C\c1ccc(O[C@@H]2O[C@H]([C@H](C)O)[C@@H](O)[C@@H]2O)c(O)c1)C(=O)N[C@@H]1[C@H](O)[C@@H](O)[C@H]2OCO[C@H]2[C@@H]1O | 3.13 (≈ 6.1 µM) | 6.25 (≈ 12.2 µM)
2 | CC(=O)[C@H]1O[C@@H](Oc2ccc(/C=C(\C)C(=O)N[C@@H]3[C@H](O)[C@@H](O)[C@H]4OCO[C@H]4[C@@H]3O)cc2O)[C@@H](O)[C@@H]1O [HYGROMYCIN A] | 0.78 (≈ 1.52 µM) | 0.78 (≈ 1.52 µM)
3 | C=CCOc1ccc(/C=C(\C)C(=O)N[C@@H]2[C@H](O)[C@@H](O)[C@H]3OCO[C@H]3[C@@H]2O)cc1O | 0.78 (≈ 1.91 µM) | 3.13 (≈ 7.68 µM)
4 | C=CCOc1ccc(/C=C(\C)C(=O)N[C@H]2C(O)[C@H](n3cnc4c(N(C)C)ncnc43)O[C@@H]2CO)cc1 (some centres not stated) | 50 (≈ 101 µM) | > 200
5 | CO/C(CO[C@H]1O[C@H](C)[C@@H](OC)[C@H](OC)[C@@H]1O)=C1\O[C@@H](Oc2ccc(/C=C(\C)C(=O)NC3C(O)[C@H](n4cnc5c(N(C)C)ncnc54)O[C@@H]3CO)cc2)[C@@H](O)[C@@H]1O (some centres not stated) | 3.13 (≈ 3.9 µM) | 3.13 (≈ 3.9 µM)
6 | C=CCOc1ccc(/C=C(\C)C(=O)N[C@H]2[C@@H](O)[C@H](OC)O[C@@H]2CO)cc1O | > 200 | > 200
7 | COc1ccc(/C=C(\C)C(=O)N[C@@H]2[C@H](O)[C@@H](O)[C@H]3OCO[C@H]3[C@@H]2O)cc1 | > 200 | > 200
8 | C=CCOc1ccc(/C=C(\C)C(=O)N[C@H]2C(O)[C@H](n3cnc4c(N(C)C)ncnc43)O[C@@H]2CO)cc1O (some centres not stated) | 1.56 (≈ 3.06 µM) | 6.25 (≈ 12.2 µM)
9 | COc1ccc(/C=C(\C)C(=O)N[C@H]2C(O)[C@H](n3cnc4c(N(C)C)ncnc43)O[C@@H]2CO)cc1 (some centres not stated) | 50 (≈ 107 µM) | 200 (≈ 427 µM)
10 | C/C(=C\c1ccc(O[C@@H]2O[C@H]([C@H](C)O)[C@@H](O)[C@@H]2O)c(O)c1)C(=O)N[C@H]1C(O)[C@H](n2cnc3c(N(C)C)ncnc32)O[C@@H]1CO (some centres not stated) | 200 (≈ 324 µM) | 200 (≈ 324 µM)
11 | C=CCOc1ccc(/C=C(\C)C(=O)N[C@@H]2[C@H](O)[C@@H](O)[C@H]3OCO[C@H]3[C@@H]2O)cc1 | 6.25 (≈ 16 µM) | 50 (≈ 128 µM)
